Data taken from patent publication US8288374B2, “Medicinal composition containing benzo[a]phenoxazine compound as the active ingredient for prevention or treatment of protozoal disease” (Hoshi University, priority 2008, dated 2012).
Converted amounts (≈) assume the structure as drawn. Where two headings read alike, the source gives them in different places.

Legend:
[1] = tested on: Trypanosoma cruzi (Tulahuen C2C4 strain); assay: American trypanosome protozoa growth inhibition screening test; type: cell-based
Experimental: In the present experiment, amastigote and trypomastigote infected with rat L6 cells of protozoa of Trypanosoma cruzi (Tulahuen C2C4 starin) were used. As medium used in the test, RPMI 1640 medium containing L6 cells was supplemented so that L-glutamine (200 mM) become 1%, fetal bovine serum becomes 10%, which was cultured under CO2 concentration 5%, at 37° C.
The compounds of the present invention to be used in the present test and the positive control drug (benznidazole) were dissolved in DMSO to make a test solution of a predetermined concentration.
A medium containing 5×10^3 protozoa was added to wells of a 96-well culture plate, and pre-cultured for 48 hours. After replacing the medium, test solution containing drug of a predetermined concentration or a drug-free DMSO was added. Test solutions were taken by duplicates.
After culturing the culture plate in an incubator for 96 hours, growth inhibition activity was tested. Test was conducted as follows. 50 μL of CPRG/Nonidet was added to each well, and allowed to rest for 2 to 6 hours. Next, the culture plate was placed on a fluorescent micro-plate reader. The absorbance was measured at 540 nm, and the trypanosome infection rate of the test solution added group and control group were calculated.
Growth inhibition rate (%)={1−(b−a)/(c−a)}×100 • a: early infection rate • b: infection rate when test solution was added • c: infection rate of the control

[2] = tested on: Plasmodium berghei NK65 strain; assay: Cure test by oral administration to mice infected with malaria; type: in vivo; settings: for inhibition in vivo at 100 mg/kg: Plasmodium berghei, infected ICR mice, suppression vs control; for inhibition in vivo at 100 mg/kg / Days of survival: oral, 1 dose, 100 mg/kg; for Days of survival: mean days to death minus that of control mice; for Effectiveness in the in vivo malaria test, in words: oral administration to mice infected with rodent malaria
Experimental: In this experiment, rodent malaria parasites (the Plasmodium berghei NK65 strain) were used.
The infected blood to be used was subcultured in ICR female SPF mice infected by intraperitoneal or tail vein administration at 4 to 6 weeks old (20 to 26 g). […] Thereafter, based on the number of red cells (cells/ml) and the rate of infection by the protozoans, the blood was diluted with phys'iological saline such that a density of […] malaria parasites/1 ml dose was attained. This was used for infection of uninfected mice (ICR female mice, 5 weeks old) in an amount of 0.2 ml/20 g body weight, through the tail vein (Day-0). The compound used in the test was dissolved in 10% DMSO solution (a mixture of 1 ml of DMSO and 9 ml of 5% glucose solution).
Each group contained 4 mice, and the compound was orally administered to the mice 24 hours after their infection with malaria (Day-1), in an amount calculated such that 100 mg of the compound was administered per 1 kg of the body weight of a mouse. On the other hand, in terms of cases in which the amount was calculated such that 30 mg of the compound was administered per 1 kg of the body weight of a mouse, the oral administration was carried out a total of three times, that is, 24 hours (Day-1), 48 hours (Day-2) and 72 hours (Day-3) after the infection of malaria.
Blood was collected from the tails of each mouse 96 hours (Day-4) and 144 hours (Day-6) after the infection with malaria, and thin blood films were prepared. Under the microscope, the numbers of infection of malaria parasites in the group to which the compound was administered and the control group (to which the compound was not administered) were measured, and the rates of infection with malaria parasites (Parasitemia) were calculated.
From the rate of infection with malaria parasites calculated as above, the cure rate (Suppression) in the case of administration of the drug was calculated according to the following equation. Cure rate: Suppression (%)=(B−A)/B×100
A: Rate of infection with the protozoans in a mouse to which the present test compound was administered
B: Rate of infection with the parasites in a control mouse (to which the compound was not administered) Days of survival: MSD (day)=C−D
C: the average number of days from the date of infection with malaria to the date of death in the mice to which the present test compound was administered
D: The average number of days from the date of infection with malaria to the date of death in the 4 individuals of control mice (to which the compound was not administered)
Further, by observation of changes in the body weight, hair glossiness and the like of each mouse, side effects such as acute toxicity due to administration of the compound were evaluated.

[3] = tested on: Plasmodium falciparum K1; assay: Chloroquine resistant-Plasmodium falciparum growth inhibition screening test; type: cell-based; settings: for Selective toxicity: EC50 against rat L6 cells / EC50 against P. falciparum K1; for EC50: Plasmodium falciparum, Table 2, unit inferred, chloroquine-resistant K1 strain, read-out: P. falciparum K1
Experimental: In the present experiment, protozoa of plasmodium falsiparum K1 strain was used. RPMI-1640 medium sterilized with a filter to which human serum was added to be 5%, was used in the experiment. Malarial parasites were cultured under 3% O2 concentration, 4% CO2 concentration, 93% N2 concentration, and at a temperature of 37° C.
The compounds of the present invention to be used in the present test and the positive control drug (chloroquine) were dissolved in DMSO to make a test solution of a predetermined concentration. Cultured malaria parasite infected-erythrocytes were collected by centrifugation, and diluted with non-infected erythrocyte so that the early infection rate was 0.15%. Hematocrit level at that time was 2.5%.
200 μL of malaria infected solution was added to wells of a 96-well culture plate, and adjusted by adding a test solution containing drug of a predetermined concentration or a drug-free DMSO. Test solutions were taken by duplicates.
[…] […] Radiation intensity was measured with a beta plate liquid scintillation counter (Wallac), and malarial parasite infection rates of the test solution added group and the control group were calculated.
Growth inhibition rate (%)={1−(b−a)/(c−a)}×100 • a: early infection rate • b: infection rate when test solution was added • c: infection rate of the control 3. Growth Inhibition Test of Rat L6 Cells
Antimalarial activity of a sample was estimated from EC50 values of the sample against chloroquine resistant-Plasmodium falciparum and rat L6 cells. […] It means that the larger the value of the selection toxity, the less the risk of the side effect is. Chemotherapy index=(EC50 value of a sample against rat L6 cells)/(EC50 value of a sample against chloroquine resistant-Plasmodium falsiparum)

[4] = 96 h, read-out: Cure rate (%) Day-4
[5] = 144 h, read-out: Cure rate (%) Day-6
[6] = Table 6, unit inferred, read-out: Trypanosoma cruzi

CCN(CC)c1ccc2nc3c4ccccc4c(=Nc4ccc5ccccc5n4)cc-3oc2c1 [Compound 1H, N,N-Diethyl-5-(quinolin-2-ylimino)-5H-benzo[a]phenoxazin-9-amine]
EC50 ([1]; Trypanosoma cruzi, Table 5, in rat L6 cells, 96 hours, CPRG/Nonidet, read-out: 50% Growth inhibition concentration Trypanosoma cruzi): 3.31 µg/mL (≈ 7.45 µM)
inhibition in vivo at 100 mg/kg [2, 4]: 81%
inhibition in vivo at 100 mg/kg [2, 5]: 71%
Days of survival [2]: 4.3 days
Selective toxicity [3]: 2513

CCN(CCNS(C)(=O)=O)c1cc(C)c2nc3c4ccccc4c(=Nc4ccncc4)cc-3oc2c1 [Compound 1R, N-Ethyl-N-(2-methansulfonamidylethyl)-11-methyl-5-(pyridine-4-ylimino)-5H-benzo[a]phenoxazin-9-amine]
EC50 [1, 6]: 2.01 µg/mL (≈ 4.01 µM)
inhibition in vivo at 100 mg/kg [2, 4]: 100%
inhibition in vivo at 100 mg/kg [2, 5]: 95.7%
Effectiveness in the in vivo malaria test, in words [2]: excellent cure effects
Days of survival [2]: 15.7 days
Selective toxicity [3]: 885
EC50 [3]: 0.009 µg/mL (≈ 0.0179 µM)

CCN(CCNS(C)(=O)=O)c1cc(C)c2nc3c4ccccc4c(=Nc4ccccn4)cc-3oc2c1 [Compound 1S, N-Ethyl-N-(2-methansulfonamidylethyl)-11-methyl-5-(pyridine-2-ylimino)-5H-benzo[a]phenoxazin-9-amine]
EC50 [1, 6]: 0.376 µg/mL (≈ 0.75 µM)
inhibition in vivo at 100 mg/kg [2, 4]: 100%
inhibition in vivo at 100 mg/kg [2, 5]: 100%
Effectiveness in the in vivo malaria test, in words [2]: excellent cure effects
Days of survival [2]: 11.3 days
Selective toxicity [3]: 43
EC50 [3]: 0.007 µg/mL (≈ 0.014 µM)
